Assay results: PubChem BioAssay (NCI)
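96-well plates; 48 h exposure; 5 concentrations. Endpoints by linear interpolation between flanking doses. Not reached: highest tested concentration assigned. Here, GI50 denotes the concentration required for 50% inhibition of growth. TGI denotes the concentration required for complete inhibition of growth.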

Experiments:
Experiment in all cases: DTP human tumour cell line panel, 48 h
[1] = test system: CAKI-1 renal
[2] = test system: DU-145 prostate
[3] = test system: K-562 leukemia
[4] = test system: M14 melanoma
[5] = test system: MALME-3M melanoma
[6] = test system: NCI/ADR-RES ovarian
[7] = test system: OVCAR-3 ovarian
[8] = test system: OVCAR-8 ovarian
[9] = test system: SF-268 CNS
[10] = test system: UO-31 renal

CCCCCCCCC/C(=N\NC(=O)c1ccncc1)c1ccc(O)c(O)c1O
GI50 [1]: 0.088 µM | TGI [1]: > 100 µM | GI50 [2]: 0.274 µM | TGI [2]: > 100 µM | GI50 [3]: 0.498 µM | TGI [3]: > 100 µM | GI50 [4]: 0.175 µM | TGI [4]: 1.14 µM | GI50 [5]: 0.491 µM | TGI [5]: > 100 µM | GI50 [6]: 0.093 µM | TGI [6]: 11.4 µM | GI50 [7]: 0.0616 µM | TGI [7]: > 35.7 µM | GI50 [8]: 0.179 µM | TGI [8]: > 100 µM | GI50 [9]: 0.142 µM | TGI [9]: > 23.4 µM | GI50 [10]: 0.0745 µM | TGI [10]: > 29.3 µM

C[C@@H](NC(=O)/C(C#N)=C/c1ccc([N+](=O)[O-])cc1)c1ccccc1
GI50 [1]: 2.37 µM | TGI [1]: 6.47 µM | GI50 [2]: 2.07 µM | TGI [2]: 4.33 µM | GI50 [3]: 2.75 µM | TGI [3]: 14 µM | GI50 [4]: 2.05 µM | TGI [4]: 4.42 µM | GI50 [5]: 2.92 µM | TGI [5]: 8.31 µM | GI50 [6]: 3.19 µM | TGI [6]: 13.3 µM | GI50 [7]: 2.39 µM | TGI [7]: 5.65 µM | GI50 [8]: 2.87 µM | TGI [8]: 8.05 µM | GI50 [9]: 3.69 µM | TGI [9]: 13.4 µM | GI50 [10]: 0.559 µM | TGI [10]: 1.06 µM

Cc1cc(O)cc(C)c1/C=C/c1cncc(C(N)=O)c1
GI50 [1]: 4.24 µM | TGI [1]: > 25 µM | GI50 [2]: 5.15 µM | TGI [2]: > 25 µM | GI50 [3]: 1.06 µM | TGI [3]: > 25 µM | GI50 [4]: 1.2 µM | TGI [4]: 7.75 µM | GI50 [5]: 1.64 µM | TGI [5]: 24.4 µM | GI50 [6]: 1.07 µM | TGI [6]: > 10.9 µM | GI50 [7]: 0.885 µM | TGI [7]: 3.93 µM | GI50 [8]: 4.15 µM | TGI [8]: > 25 µM | GI50 [9]: 3.99 µM | TGI [9]: > 25 µM | GI50 [10]: 5.58 µM | TGI [10]: > 25 µM

N/C(=N/N=C/c1ccccc1)N/N=C\c1ccccc1
GI50 [1]: 5.02 µM | TGI [1]: > 100 µM | GI50 [2]: 5.54 µM | TGI [2]: 92.7 µM | GI50 [3]: 3.35 µM | TGI [3]: > 100 µM | GI50 [4]: 3.4 µM | TGI [4]: 29.8 µM | GI50 [5]: 6.84 µM | TGI [5]: 27.2 µM | GI50 [6]: 3.26 µM | TGI [6]: > 100 µM | GI50 [7]: 2.66 µM | TGI [7]: 7.8 µM | GI50 [8]: 6.69 µM | TGI [8]: > 100 µM | GI50 [9]: 9.66 µM | TGI [9]: > 100 µM | GI50 [10]: 5.1 µM | TGI [10]: 78.3 µM

CCCCCCCCCCCCSC1=C(Cl)C(=O)C(OC)=C(OC)C1=O
GI50 [1]: 4.79 µM | TGI [1]: 34.2 µM | GI50 [2]: 11.2 µM | TGI [2]: 31.5 µM | GI50 [3]: 0.205 µM | TGI [3]: > 40 µM | GI50 [4]: 2.53 µM | TGI [4]: 18.4 µM | GI50 [5]: 0.539 µM | TGI [5]: 14.2 µM | GI50 [6]: 2.48 µM | TGI [6]: 8.94 µM | GI50 [7]: 1.39 µM | TGI [7]: 18.3 µM | GI50 [8]: 2.35 µM | TGI [8]: > 100 µM | GI50 [9]: 3.08 µM | TGI [9]: 16.1 µM | GI50 [10]: 2.27 µM | TGI [10]: 11.5 µM

CCNC(=O)Nc1ccc(Oc2ccnc3ccc4c(ccn4C)c23)cc1
GI50 [1]: 0.236 µM | TGI [1]: 0.961 µM | GI50 [2]: > 100 µM | TGI [2]: > 100 µM | GI50 [3]: 47.4 µM | TGI [3]: > 100 µM | GI50 [4]: > 100 µM | TGI [4]: > 100 µM | GI50 [5]: 38.3 µM | TGI [5]: > 100 µM | GI50 [6]: 55.8 µM | TGI [6]: > 100 µM | GI50 [7]: 19.7 µM | TGI [7]: 42.2 µM | GI50 [8]: 23 µM | TGI [8]: > 100 µM | GI50 [9]: 50.7 µM | TGI [9]: > 100 µM | GI50 [10]: 92.3 µM | TGI [10]: > 100 µM

C=C1C(=O)O[C@H]2[C@H]1CC/C(C=Nc1c(N)cc(C(F)(F)F)cc1C(F)(F)F)=C\CC[C@@]1(C)O[C@@H]21
GI50 [1]: 1.49 µM | TGI [1]: 2.98 µM | GI50 [2]: 1.63 µM | TGI [2]: 3.09 µM | GI50 [3]: 1.24 µM | TGI [3]: 9.53 µM | GI50 [4]: 1.73 µM | TGI [4]: 3.67 µM | GI50 [5]: 2 µM | TGI [5]: 3.95 µM | GI50 [6]: 2 µM | TGI [6]: 5.75 µM | GI50 [7]: 1.41 µM | TGI [7]: 2.86 µM | GI50 [8]: 1.79 µM | TGI [8]: 9.85 µM | GI50 [9]: 1.55 µM | TGI [9]: 3.82 µM | GI50 [10]: 1.07 µM | TGI [10]: 2.38 µM

S=C(NCCNC(=S)[S][Sn]([c]1ccccc1)([c]1ccccc1)[c]1ccccc1)[S][Sn]([c]1ccccc1)([c]1ccccc1)[c]1ccccc1
GI50 [1]: 0.0386 µM | TGI [1]: 0.146 µM | GI50 [2]: 0.0181 µM | TGI [2]: 0.0542 µM | GI50 [3]: 0.0168 µM | TGI [3]: 0.144 µM | GI50 [4]: 0.0267 µM | TGI [4]: 0.0976 µM | GI50 [5]: 0.0687 µM | TGI [5]: 0.201 µM | GI50 [6]: 0.0184 µM | TGI [6]: 0.0976 µM | GI50 [7]: 0.0145 µM | TGI [7]: 0.0384 µM | GI50 [8]: 0.0445 µM | TGI [8]: 0.202 µM | GI50 [9]: 0.0416 µM | TGI [9]: 0.123 µM | GI50 [10]: 0.0337 µM | TGI [10]: 0.1 µM

CONC(C)=O
TGI [1]: > 100 µM | TGI [2]: > 100 µM | TGI [3]: > 100 µM | TGI [4]: > 100 µM | TGI [5]: > 100 µM | TGI [6]: > 100 µM | TGI [7]: > 100 µM | TGI [8]: > 100 µM | TGI [9]: > 100 µM | TGI [10]: > 100 µM

COCCNc1ccc2c3c(cccc13)C(=O)N(CCN(C)C)C2=O
GI50 [1]: 4.49 µM | TGI [1]: 10.1 µM | GI50 [2]: 9.41 µM | TGI [2]: > 25 µM | GI50 [3]: 4.66 µM | TGI [3]: 11.5 µM | GI50 [4]: 7.98 µM | TGI [4]: > 25 µM | GI50 [5]: 6.13 µM | TGI [5]: 21.1 µM | GI50 [6]: 8.98 µM | TGI [6]: > 25 µM | GI50 [7]: 8.65 µM | TGI [7]: > 25 µM | GI50 [8]: 6.85 µM | TGI [8]: > 25 µM | GI50 [9]: 8.95 µM | TGI [9]: > 25 µM | GI50 [10]: 4.89 µM | TGI [10]: 19.5 µM
